In US20140011853A1, “SUBSTITUTED 3-(BIPHENYL-3-YL)-8,8-DIFLUORO-4-HYDROXY-1-AZASPIRO[4.5]DEC-3-EN-2-ONES FOR THERAPY” (BAYER INTELLECTUAL PROPERTY GMBH, priority 2011, published 2014):
Values joined by “and” are separate entries in the source; they are usually repeats but may differ in a detail not shown here. Equal entries are not always repeated.

Legend:
Spodoptera frugiperda = Spodoptera frugiperda test (SPODFR spray treatment); assay type: in vivo; settings: 500 g/ha, after 7 days
PC3 = assay: Tumour cell proliferation, CellTiter-Glo, 96-hour incubation, PC3; assay type: cell-based; settings: Homo sapiens, PC-3, 96 h, read-out: PC3 IC50
Protocol: (§1) In accordance with the invention, the substances were tested in cell-based assays for the ability of the substances of inhibiting tumour cell proliferation after a 96-hour incubation with the substance. Cell viability was tested using the CellTiter-Glo® luminescent cell viability assay (Promega). The cells were sown at a density of 2000-5000 cells/well (depending on the cell line) in 100 μl growth medium on 96-well microtiter plates. For each cell line examined, cells were sown on a separate plate to determine the luminescence at t=0 hours and t=96 hours. After overnight incubation at 37° C., the luminescence values for the t=0 samples were determined. The dose plates for the t=96 hours points in time were treated with substances diluted with growth medium. The cells were then incubated at 37° C. for 96 hours, and the luminescence values for the t=96 hours samples were then determined. For data analysis, the t=0 values were subtracted from the t=96 hours values for treated and untreated samples. The differences in luminescence in percent between substance-treated samples and control values were used to determine the growth inhibition in percent.
(§2) The substances were tested in the following cell lines which represent the stated indications in an exemplary manner: […]

H460 = assay: Tumour cell proliferation, CellTiter-Glo, 96-hour incubation, H460; assay type: cell-based; settings: Homo sapiens, NCI-H460, 96 h, read-out: H460 IC50
Protocol: as §1, §2

Tetranychus urticae = assay: Tetranychus test, OP-resistant (TETRUR spray treatment); assay type: in vivo; settings: Tetranychus urticae, 144 h, read-out: effect (kill of spider mites)
[1] = Plasma protein binding by equilibrium dialysis, human; assay type: in vitro ADME; settings: read-out: fu (human)
Protocol: (§3) The binding of test substances to plasma proteins is determined by equilibrium dialysis by means of the Ht-dialysis apparatus (96-well) made of Teflon and a semipermeable membrane (regenerated cellulose, MWCO 12-14K). This separates 150 μl each of a plasma side and a buffer side (50 mM phosphate buffer). The test substance is added in 2 concentrations (usually 3 and 0.3 μM) to the plasma side and binds to plasma proteins. The unbound fraction of the test substance passes through the membrane and is distributed on either side until equilibrium is established (after approx. 6-8 h at 37° C.). The substance concentration on the buffer side and the plasma side is determined by LC-MS analysis. For this, both sides are brought by dilution with buffer or plasma to the same matrix (10% plasma) and then precipitated with methanol. The free (unbound) fraction (fu) is calculated from the quotient of the buffer and plasma concentration. Stability tests and recovery tests are run concurrently as controls. In addition, the substance in buffer is dialysed against buffer, to check the nonspecific binding to apparatus and membrane and establishment of equilibrium. Because during incubation the osmotic pressure of the plasma proteins leads to dilution of the plasma (volume shift), this possible error is determined by weighing blank plasma samples and is included in the calculation of fu. Establishment of equilibrium and plasma stability should have a value not lower than 80% and the recovery should be at least 30%. A free fraction of <1% is regarded as high, between 1 and 10% as moderate and >10% as low plasma protein binding.

human ACC2 = human ACC2 (Homo sapiens, UniProt O00763); assay: Human ACC2 enzyme assay (ADP-Glo); settings: ACC 2 IC50, individual measurements
Myzus persicae = assay: Myzus test (MYZUPE spray treatment); assay type: in vivo; settings: Myzus persicae, 144 h, read-out: effect (kill of aphids)
Text: Disks of Chinese cabbage (Brassica pekinensis) infested by all stages of the green peach aphid (Myzus persicae) are sprayed with an active compound formulation of the desired concentration.

MCF7 = assay: Tumour cell proliferation, CellTiter-Glo, 96-hour incubation, MCF7; assay type: cell-based; settings: Homo sapiens, MCF7, 96 h, read-out: MCF7 IC50
Protocol: as §1, §2

[2] = Octanol/water distribution coefficient (logP/D), isocratic HPLC method; assay type: physicochemical; settings: pH 7.4
Text: Assay for Determining the Octanol/Water Distribution Coefficient (logP/D):
The distribution coefficient octanol/water P or D is a key parameter for estimating membrane penetration and permeability. It is defined as the ratio of the equilibrium concentrations of a substance in the two-phase system octanol/water.
It is usually stated in form of the decadic logarithm (logP or logD).
logP describes the distribution behaviour of a substance exclusively present in its neutral form. logD describes the distribution behaviour of a substance at a certain pH; depending on the ionization constant pKa of the substance, some of the substance may be present in ionic form, and some in neutral form.
The logP/D of the active compounds was determined using an isocratic HPLC method (HPLC=high performance liquid chromatography) (literature: OECD Guideline for Testing of Chemicals No. 117). The method is based on the correlation of the HPLC retention time of the test substance to that of reference substances with known distribution coefficients.
The test substance was employed as a 10 mM solution in DMSO (DMSO=dimethyl sulphoxide). 10 μl of this solution were made up to 100 μl with a methanol/water mixture in a ratio of 7+3.
The nine reference substances were dissolved individually in methanol. 100 μl each of the stock solutions were added to an HPLC vial and mixed with 300 μl of water.
A formamide solution was used to determine the hold-up time. To this end, 7 mg of formamide were dissolved in 10 ml of methanol. 100 μl of this stock solution were mixed with 500 μl of methanol and 200 μl of water.
All solutions were chromatographed using a flow rate of 1.00 ml/min.
Injection Protocol: formamide, references, test substance 1, test substance 2, . . . , formamide, references.
Evaluation of the retention times was carried out in a diode array detector (DAD) at 200-400 nm Via the molecular mass, the identity of the test substance was checked using the downstream mass spectrometer.
The HPLC run was evaluated using the Waters software Masslynx 4.1.
The logP/D values were calculated using the software “POW Determination” (proprietary development).

KM12 = assay: Tumour cell proliferation, CellTiter-Glo, 96-hour incubation, KM12; assay type: cell-based; settings: Homo sapiens, KM12, 96 h, read-out: KM12 IC50
Protocol: as §1, §2

[3] = target: human serum albumin (HSA) (Homo sapiens, UniProt P02768); assay: Protein binding to human serum albumin (HSA-Transil)
[4] = Plasma protein binding by equilibrium dialysis, mouse; assay type: in vitro ADME; settings: read-out: fu (mouse)
Protocol: as §3

Phaedon cochleariae = assay: Phaedon test (PHAECO spray treatment); settings: 500 g/ha, after 7 days

Sequence of human ACC2 (O00763 27-2458 limits assumed): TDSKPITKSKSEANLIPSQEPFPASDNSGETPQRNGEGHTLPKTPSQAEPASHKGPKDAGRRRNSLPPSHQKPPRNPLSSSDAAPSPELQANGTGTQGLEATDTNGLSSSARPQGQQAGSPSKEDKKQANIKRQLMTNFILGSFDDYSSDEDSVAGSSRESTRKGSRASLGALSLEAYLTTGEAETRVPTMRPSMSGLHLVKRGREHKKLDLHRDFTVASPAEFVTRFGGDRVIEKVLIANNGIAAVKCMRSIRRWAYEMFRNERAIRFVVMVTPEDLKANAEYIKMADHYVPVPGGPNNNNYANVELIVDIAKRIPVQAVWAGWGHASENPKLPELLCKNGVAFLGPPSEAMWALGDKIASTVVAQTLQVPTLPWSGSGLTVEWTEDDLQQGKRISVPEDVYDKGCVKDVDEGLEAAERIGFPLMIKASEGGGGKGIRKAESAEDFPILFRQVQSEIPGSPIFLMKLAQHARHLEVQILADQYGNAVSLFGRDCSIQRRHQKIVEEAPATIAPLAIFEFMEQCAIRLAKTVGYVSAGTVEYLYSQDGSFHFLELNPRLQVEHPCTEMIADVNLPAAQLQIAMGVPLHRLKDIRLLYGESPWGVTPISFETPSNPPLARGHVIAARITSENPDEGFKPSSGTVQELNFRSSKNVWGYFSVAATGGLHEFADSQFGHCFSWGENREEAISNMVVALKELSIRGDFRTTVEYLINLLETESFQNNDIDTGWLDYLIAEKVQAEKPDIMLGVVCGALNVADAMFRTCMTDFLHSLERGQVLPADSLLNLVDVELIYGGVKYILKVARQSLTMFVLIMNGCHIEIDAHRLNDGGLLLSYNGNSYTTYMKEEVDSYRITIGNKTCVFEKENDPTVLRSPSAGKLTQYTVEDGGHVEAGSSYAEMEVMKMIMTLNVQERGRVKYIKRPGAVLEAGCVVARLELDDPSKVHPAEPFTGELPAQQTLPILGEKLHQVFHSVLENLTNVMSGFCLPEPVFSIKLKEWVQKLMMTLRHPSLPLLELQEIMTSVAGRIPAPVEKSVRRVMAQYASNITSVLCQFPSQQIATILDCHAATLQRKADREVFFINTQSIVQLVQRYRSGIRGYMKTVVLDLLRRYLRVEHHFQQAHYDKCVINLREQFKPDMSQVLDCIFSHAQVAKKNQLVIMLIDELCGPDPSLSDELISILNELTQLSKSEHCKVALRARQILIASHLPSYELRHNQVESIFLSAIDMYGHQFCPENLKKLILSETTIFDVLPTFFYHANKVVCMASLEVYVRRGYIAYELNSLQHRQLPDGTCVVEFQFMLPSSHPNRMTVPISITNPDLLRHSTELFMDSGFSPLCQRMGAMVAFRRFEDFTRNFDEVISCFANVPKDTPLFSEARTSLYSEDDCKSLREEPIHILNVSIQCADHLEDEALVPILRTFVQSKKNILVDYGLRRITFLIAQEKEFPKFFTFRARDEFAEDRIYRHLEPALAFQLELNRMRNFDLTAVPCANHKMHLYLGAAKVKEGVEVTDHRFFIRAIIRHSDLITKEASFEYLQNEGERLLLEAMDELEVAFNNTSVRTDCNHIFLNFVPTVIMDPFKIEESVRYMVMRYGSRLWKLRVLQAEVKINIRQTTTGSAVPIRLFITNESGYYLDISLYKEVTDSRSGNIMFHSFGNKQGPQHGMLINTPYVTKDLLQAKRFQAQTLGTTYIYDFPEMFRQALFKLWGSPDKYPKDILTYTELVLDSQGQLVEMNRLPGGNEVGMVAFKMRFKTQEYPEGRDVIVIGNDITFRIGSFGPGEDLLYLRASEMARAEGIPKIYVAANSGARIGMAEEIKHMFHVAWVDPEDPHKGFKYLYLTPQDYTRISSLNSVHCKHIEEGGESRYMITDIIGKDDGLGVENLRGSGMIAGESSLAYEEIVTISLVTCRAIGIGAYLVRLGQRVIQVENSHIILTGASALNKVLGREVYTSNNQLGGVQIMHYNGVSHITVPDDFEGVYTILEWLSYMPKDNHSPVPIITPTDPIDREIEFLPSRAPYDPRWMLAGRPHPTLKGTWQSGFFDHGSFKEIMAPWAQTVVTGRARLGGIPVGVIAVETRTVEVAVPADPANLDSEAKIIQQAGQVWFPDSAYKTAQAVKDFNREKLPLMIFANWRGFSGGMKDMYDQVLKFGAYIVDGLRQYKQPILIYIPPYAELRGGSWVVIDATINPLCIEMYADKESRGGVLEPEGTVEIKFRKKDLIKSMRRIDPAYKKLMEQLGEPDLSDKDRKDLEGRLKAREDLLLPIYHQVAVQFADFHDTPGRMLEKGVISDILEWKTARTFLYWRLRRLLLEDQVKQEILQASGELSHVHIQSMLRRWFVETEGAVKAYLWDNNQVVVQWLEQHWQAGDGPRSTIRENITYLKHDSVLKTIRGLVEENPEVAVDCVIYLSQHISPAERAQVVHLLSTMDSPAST
Sequence of human serum albumin (HSA) (P02768 25-609): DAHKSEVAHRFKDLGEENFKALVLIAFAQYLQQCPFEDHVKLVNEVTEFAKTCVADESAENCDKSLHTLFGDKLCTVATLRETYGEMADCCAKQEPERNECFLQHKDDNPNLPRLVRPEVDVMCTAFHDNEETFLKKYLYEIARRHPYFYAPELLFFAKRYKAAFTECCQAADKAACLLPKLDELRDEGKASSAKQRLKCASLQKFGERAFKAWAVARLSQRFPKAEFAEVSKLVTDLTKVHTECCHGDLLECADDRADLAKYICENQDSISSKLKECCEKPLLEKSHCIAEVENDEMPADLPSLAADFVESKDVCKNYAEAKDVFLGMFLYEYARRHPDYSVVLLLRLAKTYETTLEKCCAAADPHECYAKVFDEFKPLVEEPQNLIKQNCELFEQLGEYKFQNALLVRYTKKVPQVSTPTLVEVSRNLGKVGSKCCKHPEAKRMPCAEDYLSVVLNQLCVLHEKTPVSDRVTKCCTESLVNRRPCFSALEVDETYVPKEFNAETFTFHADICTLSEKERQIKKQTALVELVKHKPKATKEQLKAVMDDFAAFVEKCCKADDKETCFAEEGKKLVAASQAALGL

Row | SMILES | effect (kill of caterpillars) (Spodoptera frugiperda) [%] | IC50 (PC3) [µM] | IC50 (H460) [µM] | pest or weed control at 100 g/ha (Tetranychus urticae) [%] | fraction unbound [1] | IC50 (human ACC2) | pest or weed control at 500 g/ha (Myzus persicae) [%] | IC50 (MCF7) [µM] | chromatographic logP [2] | IC50 (KM12) [µM] | Kd [3] [µM] | fraction unbound [4] | effect (kill of beetle larvae) (Phaedon cochleariae) [%]
1 | Cc1ccc(-c2ccc(Cl)c(F)c2)cc1C1=C(O)C2(CCC(F)(F)CC2)NC1=O [Example 1-1, 3-(4′-Chloro-3′-fluoro-4-methylbiphenyl-3-yl)-8,8-difluoro-4-hydroxy-1-azaspiro[4.5]dec-3-en-2-one] | 100 | 0.039 | 0.131 | 90 | 0.0035 | 3.37 µM and 2.11 µM and 2.51 µM and 3.74 µM and 0.957 µM and 1.91 µM and 2.78 µM and 3.24 µM | 90 | 0.022 | 1.9 | 0.028 | 3.04 | 0.0184 | 100
2 | Cc1ccc(-c2ccc(Cl)cc2)cc1C1=C(O)C2(CCC(F)(F)CC2)NC1=O [Example 1-2, 3-(4′-Chloro-4-methylbiphenyl-3-yl)-8,8-difluoro-4-hydroxy-1-azaspiro[4.5]dec-3-en-2-one] | 100 | 0.05 | 0.134 | 100 | 0.0042 | 2.35 µM and 2.07 µM and 2.45 µM and 2.79 µM and 0.65 µM and 1.28 µM and 1.23 µM and 1.74 µM | 100 | 0.03 | 1.73 | 0.058 | 3.86 | 0.0349 | 100
